Data: ChEMBL document CHEMBL1201862, “PubChem BioAssay data set” (2004)
Calls of active or inactive are those of the source.

What was measured:
[1] = potency of ADAM10 substrate cleavage blockers – biochemical, QFRET, dose response (AID 743254);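 further: ADAM10 enzyme with the DM2 quenched FRET peptide as substrate; EDANS fluorescence gain as the protease cuts the substrate; inhibitor potency against ADAM10 proteolytic activity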
[2] = biological target: Disintegrin and metalloproteinase domain-containing protein 17 (Homo sapiens, UniProt P78536); experiment: inhibition of ADAM17 substrate cleavage – biochemical, quenched FRET substrate, counter-screen for ADAM10 exosite inhibitor project, dose response (AID 743253)
[3] = system: HEK293; experiment: viability loss in HEK293T cells – cell-based, ATP luminescence, cherry-pick samples, cytotoxicity control, dose response (AID 687005); format: functional; conditions: Homo sapiens;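 further: cells exposed to compound for 48 hours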
[4] = HEK293 Cytotoxicity Assay Measured in Cell-Based System Using Plate Reader - 7071-01_Inhibitor_Dose_CherryPick_Activity_Set2.; format: functional
[5] = A2780 cell killing – plate reader, dry powder samples, cytotoxicity control, dose response (AID 743046); format: functional, cell-based
[6] = COV362 cell viability loss – plate reader, dry powder, SA12, cytotoxicity control for PAX8 inhibitor project, dose response (AID 743144); format: functional, cell-based
[7] = OVCAR4 cell viability loss – plate reader, dry powder, SA11, cytotoxicity control for PAX8 inhibitor project, dose response (AID 743150); format: functional, cell-based; conditions: OVCAR-4
[8] = biological target: Paired box protein Pax-8 (Homo sapiens, UniProt Q06710); experiment: PAX8 transcriptional activity inhibition in RMG-I – RMG-I cells, luciferase, cherry-pick, dose response (AID 687027); format: functional, cell-based;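 further: luciferase reporter driven by Pax8 target thyroperoxidase promoter measured by SteadyGlo luminescence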
[9] = OV-90 cell viability loss – plate reader, dry powder, SA8, PAX8 inhibitor project, dose response (AID 743149); format: functional, cell-based
[10] = non-specific 3'UTR reporter inhibition in Clone20-Shn3RL – cell-based, Renilla luciferase, cherry-picked, counter-screen for Shn3 inhibitor project, dose response (AID 624133); format: functional
[11] = PAX8-dependent cell viability loss – plate reader, dry powder, dose response (AID 743049); format: functional, cell-based
[12] = reduction of Shn3 3'UTR-driven luciferase in osteoblasts – cell-based, Clone20 osteoblasts, firefly luciferase, cherry-picked, dose response (AID 624132); format: functional;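 further: firefly luciferase luminescence from reporter carrying the Shn3 3'UTR in osteoblasts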
[13] = inhibitors acting on PAX2 in cells – cell-based, plate reader, dry powder samples, selectivity assay for PAX8 inhibitor project, dose response (AID 743048); format: functional;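 further: HEK293 cells carrying a WT1 promoter luciferase reporter driven by expressed Pax2; potency is for inhibition of Pax2 driven reporter signal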
[14] = cells; format: functional, cell-based
[15] = COV434 cell viability loss – plate reader, dry powder, SA7, cytotoxicity control for PAX8 inhibitor project, dose response (AID 743145); format: functional, cell-based
[16] = IGROV1 cell killing – plate reader, dry powder samples, PAX8 inhibitor project, dose response (AID 743043); format: functional, cell-based; conditions: IGROV-1
[17] = cells; format: functional, cell-based; remark: listed apart in the source
[18] = OVCAR-3 cell viability loss – plate reader, dry powder samples, PAX8 inhibitor project, dose response (AID 743044); format: functional, cell-based
[19] = loss of viability in HepG2 cells – cell-based, CellTiter-Glo, cherry-picked, cytotoxicity control for Shn3 inhibitor project, dose response (AID 624134); format: functional
[20] = cytotoxicity in MITF-independent A375 cells – cell-based, CellTiter-Glo luminescence, dry powder, set 4, counter-screen for MITF inhibitor project, dose response (AID 624364); format: functional; conditions: A-375;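 further: A375 melanoma cells are MITF independent so this is a counter screen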
[21] = viability loss in MITF-independent A375 cells – cell-based, CellTiter-Glo luminescence, dry powder, set 2, counter-screen for MITF inhibitor project, dose response (AID 624489); format: functional; conditions: A-375;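 further: actives are compounds lowering A375 viability meaning general cytotoxicity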
[22] = blockade of melanocortin 4 receptor signaling – cell-based, plate reader, cherry pick, counter-screen for LGR2 antagonist project, dose response (AID 743444); format: functional;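 further: transfected HEK 293 cells stimulated with alpha-MSH peptide; potency of inhibitors of the alpha-MSH evoked signal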
[23] = viability loss in HEK293 cells – cell-based, plate reader, cherry-picked samples, cytotoxicity control, dose response (AID 743446); format: functional
[24] = toxicity toward HepG2 liver cells – cell-based, plate reader, cherry-pick, antagonist series, cytotoxicity control, dose response (AID 743416); format: functional
[25] = A549 cell cytotoxicity, dose response, cytotoxicity control, plate reader, cherry-pick, antagonist series (AID 743412); format: functional, cell-based
[26] = system: HEK293; experiment: EBV LMP1 TES2 canonical NF-kB signalling blockers – cell-based, HEK293, luciferase, cherry-pick, dose response (AID 588343); format: functional; conditions: Homo sapiens
[27] = blockers of bursicon-stimulated LGR2 cAMP reporter – cell-based, HEK293, CRE-luciferase reporter, cherry pick, set 2, dose response (AID 743343); format: functional;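 further: transfected cells were stimulated with diluted bursicon conditioned medium after compound addition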
[28] = Late stage assay provider results from the probe development effort to identify selective inhibitors of heat shock protein 90 (HSP90): Absorbance-based cell proliferation assay in SKBR3 cells.; format: functional; conditions: SK-BR-3
[29] = Late stage assay provider results from the probe development effort to identify selective inhibitors of heat shock protein 90 (HSP90): Absorbance-based cell proliferation assay in MCF7 cells.; format: functional
[30] = biological target: Major prion protein (Homo sapiens, UniProt P04156); format: functional, cell-based
[31] = cells

For `CCC(=O)N(Cc1ccco1)c1nc(C(=O)Nc2ccc(Cl)cc2)c(C)s1`, the IC50 [1] was > 69.5 µM (inactive) and the IC50 [2] was > 69.5 µM (inactive).
In the case of `CC(NC(=O)COc1ccccc1C(C)(C)C)c1ccccc1` (stereo not given), the AC50 [3] is reported as 51.4 µM (active) and the AC50 [4] is reported as 51.4 µM (active).
With `Cc1cc(NC(=O)CCCS(=O)(=O)c2nc(-c3cccs3)cc(C(F)(F)F)n2)no1` the AC50 [5] was 10.3 µM (active), the AC50 [6] was 14.3 µM (active) and the AC50 [7] was 20.8 µM (active). For the same compound, the AC50 [8] was 6.85 µM (active), the AC50 [9] was 26.3 µM (active) and the AC50 [10] was 6.46 µM (active). The AC50 [11] was 18.6 µM (active), the AC50 [12] was 1.73 µM (active) and the AC50 [13] was 17.3 µM (active). For the same compound, the EC50 [14] was > 350 µM (not active), the AC50 [15] was 12.1 µM (active) and the AC50 [16] was 16.4 µM (active). For the same compound, the EC50 [17] was > 350 µM (not active), the AC50 [18] was 15.5 µM (active) and the AC50 [19] was 16.3 µM (active).
With `O=C(NC1=C(c2ccc(OC(F)(F)F)cc2)C(=O)c2ccccc2C1=O)c1ccco1` the AC50 [20] was 32.2 µM (active) and the AC50 [21] was 21.1 µM (active).
For `Cc1ccnc(NC(=O)c2ccc(C(=O)c3ccccc3)cc2)c1`, the AC50 [22] was 5.18 µM (active), the AC50 [23] was 31.2 µM (active) and the AC50 [24] was > 52 µM (inactive). The AC50 [25] was > 52 µM (inactive), the AC50 [26] was 3.28 µM (active) and the AC50 [27] was 7.49 µM (active).
In the case of `N#Cc1cc2cc(OCCc3ccc(F)cc3)ccc2oc1=O`, the IC50 [28] is reported as 16.9 µM (inactive) and the IC50 [29] is reported as 96.5 µM (inactive).
In the case of `COC(=O)CSc1nc(-c2ccccc2)nc2ccccc12`, the IC50 [30] is reported as 1.31 µM (active) and the IC50 [31] is reported as > 138 µM (inactive).
For `O=C(NCc1ccco1)c1coc(=O)c(Br)c1`, the IC50 [28] was 27.8 µM (inactive) and the IC50 [29] was 4.8 µM (active).
In the case of `CC(=O)c1ccc(CCCCCCCCCC(=O)O)s1`, the IC50 [30] is reported as 5.71 µM (active) and the IC50 [31] is reported as > 138 µM (inactive).
